Source: PubChem BioAssay AID256 (DTP/NCI, 2004)
Values joined by “and” are separate entries in the source; they are usually repeats but may differ in a detail not shown here. Equal values may be shown once. Inconclusive results and toxic doses are left out. How the source made its calls: active means survival T/C of 150% or more; inactive means T/C below 125% in these data.

System: CD2F1 mice, L1210 leukemia ip, survival T/C
Assay: NCI In Vivo Anticancer Drug Screen. Data for tumor model L1210 Leukemia (intraperitoneal) in CD2F1 (CDF1) mice
Details: endpoint: mean survival time, higher = longer survival
Summary of the method: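 Read-out first: treated-group measurement over vehicle-control measurement, expressed as a ratio. Animals bore a transplanted tumor line and were dosed with compound or vehicle.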

[1] = dose: 25.0 mg/kg/injection, schedule: Q01DX009 (ip), vehicle: saline with Tween-80
[2] = dose: 50.0 mg/kg/injection, schedule: Q01DX009 (ip), vehicle: saline with Tween-80
[3] = dose: 100.0 mg/kg/injection, schedule: Q01DX009 (ip), vehicle: saline with Tween-80
[4] = dose: 100.0 mg/kg/injection, schedule: Q04DX003 (ip), vehicle: saline with Tween-80
[5] = dose: 200.0 mg/kg/injection, schedule: Q04DX003 (ip), vehicle: saline with Tween-80
[6] = dose: 100.0 mg/kg/injection, schedule: Q01DX001 (ip), vehicle: saline with Tween-80
[7] = dose: 100.0 mg/kg/injection, schedule: Q04DX002 (ip), vehicle: saline with Tween-80
[8] = dose: 200.0 mg/kg/injection, schedule: Q01DX001 (ip), vehicle: saline with Tween-80
[9] = dose: 200.0 mg/kg/injection, schedule: Q04DX002 (ip), vehicle: saline with Tween-80
[10] = dose: 400.0 mg/kg/injection, schedule: Q01DX001 (ip), vehicle: saline with Tween-80
[11] = dose: 400.0 mg/kg/injection, schedule: Q04DX002 (ip), vehicle: saline with Tween-80
[12] = dose: 100.0 mg/kg/injection, schedule: Q01DX001 (ip), vehicle: saline
[13] = dose: 200.0 mg/kg/injection, schedule: Q01DX001 (ip), vehicle: saline
[14] = dose: 400.0 mg/kg/injection, schedule: Q01DX001 (ip), vehicle: saline
[15] = dose: 100.0 mg/kg/injection, schedule: Q04DX003 (ip), vehicle: Klucel (hydroxypropylcellulose) (HPC)
[16] = dose: 200.0 mg/kg/injection, schedule: Q04DX003 (ip), vehicle: Klucel (hydroxypropylcellulose) (HPC)
[17] = dose: 400.0 mg/kg/injection, schedule: Q04DX003 (ip), vehicle: Klucel (hydroxypropylcellulose) (HPC)
[18] = dose: 25.0 mg/kg/injection, schedule: Q04DX002 (ip), vehicle: saline with Tween-80
[19] = dose: 50.0 mg/kg/injection, schedule: Q04DX002 (ip), vehicle: saline with Tween-80
[20] = dose: 200.0 mg/kg/injection, schedule: Q01DX009 (ip), vehicle: saline with Tween-80
[21] = dose: 400.0 mg/kg/injection, schedule: Q04DX003 (ip), vehicle: saline with Tween-80
[22] = dose: 12.5 mg/kg/injection, schedule: Q01DX009 (ip), vehicle: saline with Tween-80
[23] = dose: 75.0 mg/kg/injection, schedule: Q01DX001 (ip), vehicle: other
[24] = dose: 150.0 mg/kg/injection, schedule: Q01DX001 (ip), vehicle: other
[25] = dose: 300.0 mg/kg/injection, schedule: Q01DX001 (ip), vehicle: other

Measured: T/C

Clc1n[nH]c(Cl)n1
inactive: [1] 97 % of control | [2] 100 % of control | [3] 89 % of control | [4] 86 % of control

O/N=C/c1ccc(O)cc1
inactive: dose: 50.0 mg/kg/injection, schedule: Q04DX003 (ip), vehicle: saline with Tween-80 94 % of control | [4] 91 % of control | [5] 97 % of control

O=c1cc(Nc2cccc(Cl)c2Cl)[nH]c(=O)[nH]1
inactive: [6] 93 % of control and 97 % of control | [7] 118 % of control and 91 % of control | [8] 97 % of control and 98 % of control | [9] 90 % of control and 92 % of control | [10] 95 % of control and 97 % of control | [11] 91 % of control and 100 % of control

Nc1cc(Cl)c(I)cc1Cl
inactive: [12] 102 % of control | [13] 102 % of control | [14] 101 % of control

C(=N\N(c1ccccc1)c1ccccc1)/c1ccc(/C=N/N(c2ccccc2)c2ccccc2)cc1
inactive: [15] 97 % of control | [16] 95 % of control | [17] 95 % of control

CC(=O)NNC(=O)CC(O)(c1ccccc1)c1ccccc1
inactive: [7] 113 % of control | [9] 95 % of control

CCOC(=O)C(CCC(O)C#N)(NC(C)=O)C(=O)OCC (centres undefined)
inactive: [18] 101 % of control | [19] 96 % of control | [7] 100 % of control

CNC(=O)c1ccc(C(=O)NC)cc1
inactive: [3] 86 % of control | [20] 94 % of control | dose: 400.0 mg/kg/injection, schedule: Q01DX009 (ip), vehicle: saline with Tween-80 96 % of control

Cc1ccc(S(=O)(=O)N=S(C)(C)=O)cc1
inactive: [7] 98 % of control | [9] 94 % of control | [11] 94 % of control

CCCCCCN(CCCCCC)CP(=O)(CN(CCCCCC)CCCCCC)CN(CCCCCC)CCCCCC
inactive: [6] 95 % of control | [8] 104 % of control | [10] 104 % of control

O=S(=O)(F)c1cc(Cl)c(O)c(S(=O)(=O)F)c1
inactive: dose: 25.0 mg/kg/injection, schedule: Q01DX009 (ip), vehicle: Klucel (hydroxypropylcellulose) (HPC) 97 % of control | dose: 50.0 mg/kg/injection, schedule: Q01DX009 (ip), vehicle: Klucel (hydroxypropylcellulose) (HPC) 103 % of control | dose: 100.0 mg/kg/injection, schedule: Q01DX009 (ip), vehicle: Klucel (hydroxypropylcellulose) (HPC) 101 % of control

Cc1ccc(OCC(=O)C2CSc3ccc(Cl)cc32)cc1 (centres undefined)
inactive: [4] 97 % of control | [5] 94 % of control | [21] 111 % of control

[O-][n+]1ccccc1F
inactive: [12] 104 % of control

Cc1cc(Br)c2ccccc2c1N(CC(=O)O)S(=O)(=O)c1ccccc1
inactive: [22] 103 % of control | [1] 103 % of control | [2] 94 % of control

Nc1nc2ncccc2[nH]1
inactive: dose: 12.5 mg/kg/injection, schedule: Q01DX005 (ip), vehicle: other 108 % of control | dose: 25.0 mg/kg/injection, schedule: Q01DX005 (ip), vehicle: other 107 % of control | dose: 50.0 mg/kg/injection, schedule: Q01DX005 (ip), vehicle: other 104 % of control | dose: 100.0 mg/kg/injection, schedule: Q01DX005 (ip), vehicle: other 101 % of control | dose: 200.0 mg/kg/injection, schedule: Q01DX005 (ip), vehicle: other 103 % of control

C[n+]1cccc(/C=C/C(=O)Nc2ccccc2)c1
inactive: [4] 99 % of control | [5] 87 % of control

Cc1ccc(-c2nc(-c3ccccc3)[nH]c(=O)c2CCO)cc1
inactive: [4] 94 % of control | [5] 92 % of control | [21] 88 % of control

O=C1CC(=O)N(C2OC(CO)C(O)C2O)C(=O)N1 (centres undefined)
inactive: dose: 12.5 mg/kg/injection, schedule: Q01DX005 (ip), vehicle: water 94 % of control | dose: 25.0 mg/kg/injection, schedule: Q01DX005 (ip), vehicle: water 100 % of control | dose: 50.0 mg/kg/injection, schedule: Q01DX005 (ip), vehicle: water 106 % of control | dose: 100.0 mg/kg/injection, schedule: Q01DX005 (ip), vehicle: water 106 % of control | dose: 200.0 mg/kg/injection, schedule: Q01DX005 (ip), vehicle: water 105 % of control | dose: 400.0 mg/kg/injection, schedule: Q01DX005 (ip), vehicle: water 100 % of control

CN(C)CCC(=O)c1cccc2ccccc12
inactive: [1] 98 % of control | [2] 96 % of control | [6] 92 % of control | [3] 96 % of control

CCN1C(=O)/C(=C\C=C2/SCCN2C)OC1=S
inactive: [23] 92 % of control | [24] 100 % of control | [25] 94 % of control

CC(=O)N(C(C)=O)c1nc(Br)c2ccccc2c1-c1ccc([N+](=O)[O-])cc1
inactive: dose: 50.0 mg/kg/injection, schedule: Q04DX003 (ip), vehicle: other 100 % of control | dose: 100.0 mg/kg/injection, schedule: Q04DX003 (ip), vehicle: other 94 % of control | dose: 200.0 mg/kg/injection, schedule: Q04DX003 (ip), vehicle: other 94 % of control | dose: 400.0 mg/kg/injection, schedule: Q04DX003 (ip), vehicle: other 88 % of control

O=C(O)/C=C/C(=O)Nc1cc2c(cc1Br)-c1ccccc1C2O (centres undefined)
inactive: [4] 100 % of control | [5] 102 % of control | [21] 94 % of control

CCOC(=O)c1cnc2c(cnn2CC)c1OCc1ccccc1
inactive: [15] 101 % of control | [16] 104 % of control | [17] 108 % of control

Cc1ccc(C)c(NC(=O)c2ccc(Cl)cc2Cl)c1
inactive: [4] 98 % of control | [5] 98 % of control | [21] 96 % of control

COc1ccc2c(c1OC)C1C3CC=CC3C2C2=[N+]1CCc1cc3c(cc12)OCO3 (centres undefined)
inactive: dose: 12.5 mg/kg/injection, schedule: Q04DX003 (ip), vehicle: saline 97 % of control | dose: 25.0 mg/kg/injection, schedule: Q04DX003 (ip), vehicle: saline 104 % of control | dose: 100.0 mg/kg/injection, schedule: Q04DX003 (ip), vehicle: saline 97 % of control

CC12CCC(CC1CO)C2 (centres undefined)
inactive: [4] 88 % of control | [5] 87 % of control

Cc1nc2c(c(-c3ccccc3)n1)Cc1c(ccc3ccccc13)O2
inactive: [12] 92 % of control | [13] 98 % of control | [14] 103 % of control

CC1CC(O)C(NC(=O)NCCCl)C(O)C1 (centres undefined)
inactive: [6] 102 % of control | [8] 102 % of control | [10] 110 % of control

CCC(C)(C)OC(=O)Nc1ccc(C)c(NC(=O)OC(C)(C)CC)c1
inactive: [23] 86 % of control | [24] 86 % of control | [25] 90 % of control

O=C1C2C3C=CC(O3)C2C(=O)N1Cc1ccncc1 (centres undefined)
inactive: [12] 108 % of control | [13] 100 % of control | [14] 101 % of control

CCCCOS(=O)OCCCC
inactive: [6] 106 % of control | [8] 102 % of control | [10] 97 % of control

Cc1ccc(/C=C2\CCOC2=O)cc1
inactive: [15] 102 % of control | [16] 96 % of control | [17] 96 % of control

O=C(O)COc1ccc(Cl)cc1Cl (tested in a mixture with another compound)
inactive: [22] 89 % of control | [1] 94 % of control | [18] 111 % of control | [2] 87 % of control and 104 % of control | [19] 121 % of control | [3] 101 % of control | [7] 99 % of control | [20] 93 % of control | [9] 96 % of control

CCSc1n[nH]c(=O)nc1SC
inactive: dose: 75.0 mg/kg/injection, schedule: Q01DX001 (ip), vehicle: saline 98 % of control | dose: 150.0 mg/kg/injection, schedule: Q01DX001 (ip), vehicle: saline 96 % of control | dose: 300.0 mg/kg/injection, schedule: Q01DX001 (ip), vehicle: saline 97 % of control

CCOc1ccc(-c2nc(N)nc(N)n2)cc1
inactive: dose: 12.5 mg/kg/injection, schedule: Q01DX009 (ip), vehicle: water 101 % of control | dose: 25.0 mg/kg/injection, schedule: Q01DX009 (ip), vehicle: water 97 % of control | dose: 50.0 mg/kg/injection, schedule: Q01DX009 (ip), vehicle: water 97 % of control | dose: 100.0 mg/kg/injection, schedule: Q01DX009 (ip), vehicle: water 97 % of control | dose: 200.0 mg/kg/injection, schedule: Q01DX009 (ip), vehicle: water 97 % of control
